Results reported in patent publication US20230348401A1, “Inhibitors of Glucose-6-phosphate Dehydrogenase and Uses Thereof” (The Trustees of Princeton University, priority 2020, published 2023).
Values joined by “and” are separate entries in the source; they are usually repeats but may differ in a detail not shown here. Identical values can stand only once. Like-named read-outs stand apart in the source and are kept apart here.

Biological target: G6PD (Homo sapiens, UniProt P11413)
Assay: G6PD enzymatic activity by diaphorase-coupled assay
[1] = Normalized in vitro IC50, Table 1, diaphorase-coupled biochemical assay, normalization to an intraplate control
[2] = Normalized in vitro IC50, Table 1A, diaphorase-coupled biochemical assay, normalization to an intraplate control

Sequence of G6PD (P11413 28-515): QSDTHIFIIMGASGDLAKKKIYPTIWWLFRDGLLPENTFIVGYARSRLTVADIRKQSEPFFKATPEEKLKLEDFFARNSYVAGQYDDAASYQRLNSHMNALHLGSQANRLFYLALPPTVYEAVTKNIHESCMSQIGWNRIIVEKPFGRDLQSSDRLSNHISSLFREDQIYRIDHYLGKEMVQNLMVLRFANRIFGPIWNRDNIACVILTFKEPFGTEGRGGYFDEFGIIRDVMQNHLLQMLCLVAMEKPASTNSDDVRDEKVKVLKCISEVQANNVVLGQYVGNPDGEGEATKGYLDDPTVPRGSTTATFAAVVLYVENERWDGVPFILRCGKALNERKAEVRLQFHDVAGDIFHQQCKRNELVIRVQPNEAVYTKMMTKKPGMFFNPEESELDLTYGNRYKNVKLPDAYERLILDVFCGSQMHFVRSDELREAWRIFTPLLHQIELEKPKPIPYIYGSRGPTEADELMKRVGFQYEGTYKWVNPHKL

Row | SMILES | IC50 [1] | IC50 [µM] | also measured
1 | Cc1ccc(Nc2ncc3c(n2)CCCC3=O)cc1C [KG-0188-0] | 1 to 1000 µM |  | 
2 | Cc1cccc(Nc2ncc3c(n2)CCNC3=O)c1 [KG-0055-0] |  | 1 to 1000 | 
3 | N#Cc1cccc(Nc2ncc3c(n2)CCCC3O)c1 (centres unmarked) [KG-0261-10] |  | 1 to 1000 | 
4 | O=C1CCCc2nc(Nc3cccc(Cl)c3)ncc21 [KG-0065-0] | < 1 µM |  | 
5 | N#Cc1cc(Nc2ncc3c(n2)CCCCC3=O)cc(OCc2c(F)c(F)c(F)c(F)c2F)c1 [Compound 0050] |  | < 1 | 
6 | O=C1CCCc2nc(Nc3cccc(Br)c3)ncc21 [KG-0167-0A] | 1 to 1000 µM |  | 
7 | O=C1CCCCc2nc(Nc3ccc(I)cc3)ncc21 [Compound 0004] |  |  | IC50 [2]: 1 to 1000 µM
8 | O=C1CCCc2nc(Nc3ccc4cn[nH]c4c3)ncc21 [KG-0229-0] | 1 to 1000 µM |  | 
9 | N#Cc1cc(Nc2ncc3c(n2)CCCCC3=O)cc(OCc2cccnc2)c1 [Compound 0118] |  | < 1 | 
10 | N#Cc1cc(Nc2ncc3c(n2)CCCCC3=O)cc(OC2CCCCC2)c1 [Compound 0063] |  | < 1 | 
11 | N#Cc1cc(Nc2ncc3c(n2)CCCCC3=O)cs1 [Compound 0065] |  |  | IC50 [2]: < 1 µM
12 | N#Cc1cccc(Nc2ncc3c(n2)CCC(Br)C3=O)c1 (centres unmarked) [KG-0206-0] | < 1 µM |  | 
13 | N#Cc1cc(Nc2ncc3c(n2)CCCCC3=O)c(C(F)(F)F)s1 [KG-0337-0A] |  | 1 to 1000 | 
14 | O=C1CCCCc2nc(Nc3cccc(F)c3)ncc21 [KG-0339] | < 1 µM |  | 
15 | O=C1CCCc2nc(Nc3cc[nH]n3)ncc21 [KG-0216-0] | > 1000 µM |  | 
16 | NC(=O)c1cccc(Nc2ncc3c(n2)CCCC3=O)c1 [KG-0238-0] | 1 to 1000 µM |  | 
17 | CN(c1cccc(C#N)c1)c1ncc2c(n1)CCCC2=O [KG-0176] | > 1000 µM |  | 
18 | N#Cc1cc(Nc2ncc3c(n2)CCCCC3=O)cc(OCc2ccc3c(c2)OCO3)c1 [Compound 0075] |  | < 1 | 
19 | O=C1c2cnc(Nc3cccc(Cl)c3)nc2CCCC1Br (centres unmarked) [KG-0335-0] |  | < 1 | 
20 | CC(Nc1ncc2c(n1)CCCC2=O)c1ccccc1 (centres unmarked) [KG-0165-0] | 1 to 1000 µM and > 1000 µM |  | 
21 | C#CCCCOc1cc(C#N)cc(Nc2ncc3c(n2)CCCCC3=O)c1 [Compound 0094] |  | < 1 | 
22 | Cc1cccc(Nc2ncc3c(n2)CCC3=O)c1 [KG-0138-0] | 1 to 1000 µM |  | 
23 | O=C1CCCc2nc(NCc3ccccc3)ncc21 [KG-0164-0] | 1 to 1000 µM |  | 

Row | SMILES | IC50 [1] | IC50 [µM] | also measured
24 | O=C1CCCc2nc(Nc3nccs3)ncc21 [KG-0214-0] |  | 1 to 1000 | 
25 | O=C1CCCc2nc(Nc3ccc4[nH]ncc4c3)ncc21 [KG-0232-0] | < 1 µM |  | 
26 | O=C1CCCc2nc(Nc3nc4ccccc4[nH]3)ncc21 [KG-0209-0] | 1 to 1000 µM |  | 
27 | N#Cc1cc(Nc2ncc3c(n2)CCC(C(F)(F)F)C3=O)cs1 (centres unmarked) [KG-0318] |  | < 1 | 
28 | CCOc1cccc(Nc2ncc3c(n2)CCCC3=O)c1 [KG-0239-0] | 1 to 1000 µM |  | 
29 | COC(=O)c1ccc(Nc2ncc3c(n2)CCCCC3=O)cc1 [Compound 0022] |  |  | IC50 [2]: 1 to 1000 µM
30 | N#Cc1cc(Nc2ncc3c(n2)CCCCC3=O)cc(OCc2ccc(OC(F)(F)F)cc2)c1 [Compound 0077] |  | 1 to 1000 | 
31 | N#Cc1cccc(Nc2ncc3c(n2)CCC(O)C3=O)c1 (centres unmarked) [KG-0315-0A] | < 1 µM |  | 
32 | C#CCOc1cc(C#N)cc(Nc2ncc3c(n2)CCCCC3=O)c1 [Compound 0062] |  | < 1 | 
33 | CC#Cc1cccc(Nc2ncc3c(n2)CCCC3=O)c1 [KG-0204-0] | 1 to 1000 µM |  | 
34 | O=C1CCCc2nc(Nc3ccc4nc[nH]c4c3)ncc21 [KG-0223-0] | 1 to 1000 µM |  | 
35 | O=C1CCCCc2nc(Nc3ccc(B(O)O)cc3)ncc21 [Compound 0032] |  |  | IC50 [2]: 1 to 1000 µM
36 | N#Cc1cc(Nc2ncc3c(n2)CCCCC3=O)cc(OCc2cccc(CO)c2)c1 [Compound 0083] |  | < 1 | 
37 | O=C1CCCc2nc(Nc3cccc(F)c3)ncc21 [KG-0061-0] | < 1 µM |  | 
38 | N#Cc1cc(Nc2ncc3c(n2)CCC(O)C3=O)cs1 (centres unmarked) [KG-0317] |  | < 1 | 
39 | Cc1cccc(Nc2ccc3c(c2)CCCC3=O)c1 [KG-0054] |  | > 1000 | 
40 | Cc1ccc(Nc2ncc3c(n2)CCCCC3=O)cc1 [Compound 0005] |  |  | IC50 [2]: 1 to 1000 µM
41 | N#Cc1cc(Cl)cc(Nc2ncc3c(n2)CCCC3=O)c1 [KG-0265-0] | < 1 µM |  | 
42 | NS(=O)(=O)c1ccc(Nc2ncc3c(n2)CCCCC3=O)cc1 [Compound 0044] |  |  | IC50 [2]: 1 to 1000 µM
43 | N#Cc1cc(Nc2ncc3c(n2)CCCCC3=O)cc(OCc2cccc3ccccc23)c1 [Compound 0079] |  | < 1 | 
44 | Cc1ccccc1Nc1ncc2c(n1)CCCC2=O [KG-0056-0A] | 1 to 1000 µM |  | 
45 | COc1ccc(COc2cc(C#N)cc(Nc3ncc4c(n3)CCCCC4=O)c2)cc1 [Compound 0048] |  | < 1 | 
46 | N#Cc1cc(Nc2ncc3c(n2)CCCCC3=O)cn1Cc1ccccc1 [Compound 0058] |  | 1 to 1000 | 

Row | SMILES | IC50 [1] | IC50 [µM] | also measured
47 | Cc1cc(Nc2ncc3c(n2)CCCC3=O)no1 [KG-0220-0] |  | 1 to 1000 | 
48 | O=C1CCCc2nc(NCc3ccncc3)ncc21 [KG-0163-0] |  | 1 to 1000 | 
49 | O=C(c1ccccc1)c1cc(Cl)cc(Nc2ncc3c(n2)CCCCC3=O)c1 [Compound 0042] |  |  | IC50 [2]: 1 to 1000 µM
50 | O=C1CCCc2nc(Nc3cccc(Br)c3)ncc21 [KG-0167] | 1 to 1000 µM |  | 
51 | N#Cc1cccc(Nc2ncc3c(n2)COCC3=O)c1 [KG-0190-0] |  | 1 to 1000 | 
52 | COC(=O)c1cccc(Nc2ncc3c(n2)CCCC3=O)c1 [KG-0064-0] | 1 to 1000 µM |  | 
53 | N#Cc1cccc(Nc2ncc3c(n2)CCCC(O)C3=O)c1 (centres unmarked) [KG-0331] |  | 1 to 1000 | 
54 | O=C1CCCc2nc(Nc3cccc(CO)c3)ncc21 [KG-0240-0] | 1 to 1000 µM |  | 
55 | N#Cc1ccc(Nc2ncc3c(n2)CCCCC3=O)cc1 [Compound 0012] |  |  | IC50 [2]: 1 to 1000 µM
56 | N#Cc1cc(Nc2ncc3c(n2)CCCCC3=O)cc(OCCN)c1 [Compound 0128] |  | 1 to 1000 | 
57 | O=C1CCCCc2nc(Nc3cccc(Cl)c3)ncc21 [Compound 0028] |  |  | IC50 [2]: < 1 µM
58 | Cc1ccc(C(=O)c2cc(Cl)cc(Nc3ncc4c(n3)CCCCC4=O)c2)cc1 [Compound 0043] |  | > 1000 | 
59 | N#Cc1cccc(Nc2ncc3c(n2)CCCC3=O)c1 [KG-0062-0] | < 1 µM |  | 
60 | CCNC(=O)Nc1cccc(Nc2ncc3c(n2)CCCC3=O)c1 [KG-0283-0] | 1 to 1000 µM |  | 
61 | CC(C)(C)COc1cc(C#N)cc(Nc2ncc3c(n2)CCCCC3=O)c1 [Compound 0106] |  | > 1000 | 
62 | Cc1cccc(Nc2ncc3c(n2)CCCC3=O)c1 [KG-0051-0] | 1 to 1000 µM |  | 
63 | N#Cc1cc(Nc2ncc3c(n2)CCCCC3=O)c[nH]1 [Compound 0051] |  | < 1 | 
64 | CCC(CC)Oc1cc(C#N)cc(Nc2ncc3c(n2)CCCCC3=O)c1 [Compound 0101] |  | 1 to 1000 | 
65 | CC1(C)[C@H]2CCC1(C)[C@@H](Oc1cc(C#N)cc(Nc3ncc4c(n3)CCCCC4=O)c1)C2 [Compound 0093] |  | > 1000 | 
66 | N#Cc1cc(Nc2ncc3c(n2)CCCCC3=O)cc(Oc2ccccc2)c1 [Compound 0084] |  | 1 to 1000 | 
67 | Cc1csc(Nc2ncc3c(n2)CCCC3=O)n1 [KG-0219-0] |  | 1 to 1000 | 
68 | N#Cc1cccc(Nc2ncc3c(n2)CCCCC3=O)c1F [Compound 0087] |  | < 1 | 
69 | N#Cc1cc(Nc2ncc3c(n2)CCCCC3=O)cc(OCCc2ccccc2)c1 [Compound 0103] |  | < 1 | 

Row | SMILES | IC50 [1] | IC50 [µM] | also measured
70 | N#Cc1ccc(F)c(Nc2ncc3c(n2)CCCCC3=O)c1 [Compound 0088] |  | 1 to 1000 | 
71 | O=C1CCCCc2nc(Nc3ccc(Br)cc3)ncc21 [Compound 0003] |  |  | IC50 [2]: 1 to 1000 µM
72 | COc1cc(C#N)cc(Nc2ncc3c(n2)CCCC3=O)c1 [KG-0255-0] | < 1 µM |  | 
73 | O=C1CCCc2nc(Nc3cccc(Oc4ccccc4)c3)ncc21 [KG-0251-0] | 1 to 1000 µM |  | 
74 | O=C1CCCc2nc(Nc3ncco3)ncc21 [KG-0213-0] |  | > 1000 | 
75 | Cc1ccc(COc2cc(C#N)cc(Nc3ncc4c(n3)CCCCC4=O)c2)cc1 [Compound 0074] |  | < 1 | 
76 | N#Cc1cc(Nc2ncc3c(n2)CCCCC3=O)cc(OCc2ccccc2)c1 [Compound 0035] |  | < 1 | 
77 | C#Cc1cccc(Nc2ncc3c(n2)CCCC3=O)c1 [KG-0183-0] | 1 to 1000 µM |  | 
78 | O=C1CCCc2nc(Nc3ccon3)ncc21 [KG-0215-0] | 1 to 1000 µM |  | 
79 | COC1CCc2nc(Nc3csc(C#N)c3)ncc2C1=O (centres unmarked) [KG-0321] |  | < 1 | 
80 | O=C1CCCc2nc(Nc3cccc(C(F)(F)F)c3)ncc21 [KG-0063-0] | 1 to 1000 µM |  | 
81 | O=C1CCCc2nc(NCc3cccnc3)ncc21 [KG-0162-0] |  | 1 to 1000 | 
82 | O=C1CCCCc2nc(Nc3ccc(F)cc3)ncc21 [Compound 0001] |  |  | IC50 [2]: 1 to 1000 µM
83 | N#Cc1cc(Nc2ncc3c(n2)CCCC3=O)cs1 [KG-0254-0A] |  | < 1 | 
84 | N#Cc1cc(Nc2ncc3c(n2)CCCCC3C(C#N)C#N)cs1 (centres unmarked) [Compound 0136] |  | 1 to 1000 | 
85 | N#Cc1cc(Nc2ncc3c(n2)CCCC(Br)C3=O)cs1 (centres unmarked) [KG-0336-0] |  | < 1 | 
86 | Cn1cc(Nc2ncc3c(n2)CCCCC3=O)cc1C#N [Compound 0057] |  | 1 to 1000 | 
87 | N#Cc1cc(Nc2ncc3c(n2)CCCCC3=O)cc(OCc2cnoc2)c1 [Compound 0123] |  | < 1 | 
88 | N#C/C=C1/CCCCc2nc(Nc3csc(C#N)c3)ncc21 [Compound 0056] |  | 1 to 1000 | 
89 | O=C1CCCCc2nc(Nc3ccc(Cl)cc3)ncc21 [Compound 0002] |  |  | IC50 [2]: 1 to 1000 µM
